ChEMBL document CHEMBL5120924 (J Nat Prod, 2022)

What was measured:
MDA-MB-435 = assay: Cytotoxicity against human MDA-MB-435 cells assessed as reduction in cell viability measured after 72 hrs by celltiter-blue cell viability assay; format: functional, cell-based; conditions: MDA-MB-435, 72 h
OVCAR-3 = assay: Cytotoxicity against human OVCAR-3 cells assessed as reduction in cell viability measured after 72 hrs by celltiter-blue cell viability assay; format: functional, cell-based; conditions: OVCAR-3, 72 h

## COC(=O)O[C@H]1C[C@H]2O[C@@H]2c2cc(OC)cc(O)c2C(=O)O[C@@H](C)C/C=C\C(=O)[C@H]1O
MDA-MB-435
  IC50: 1700 nM
OVCAR-3
  IC50: 1700 nM

## COc1cc(O)c2c(c1)[C@H]1O[C@@H]1C[C@H](OC(=O)/C=C\C(=O)O)[C@H](O)C(=O)/C=C\C[C@H](C)OC2=O
MDA-MB-435
  IC50: 1700 nM
OVCAR-3
  IC50: 1700 nM

## COc1cc(O)c2c(c1)[C@H]1O[C@@H]1C[C@H](O)[C@H](O)C(=O)/C=C\C[C@H](C)OC2=O [HYPOTHEMYCIN]
MDA-MB-435
  IC50: 1900 nM
OVCAR-3
  IC50: 2600 nM

## COc1cc(O)c2c(c1)[C@H]1O[C@@H]1C[C@H](OC(=O)CCC(=O)O)[C@H](O)C(=O)/C=C\C[C@H](C)OC2=O
MDA-MB-435
  IC50: 1700 nM
OVCAR-3
  IC50: 1700 nM

## COC(=O)O[C@@H]1C(=O)/C=C\C[C@H](C)OC(=O)c2c(O)cc(OC)cc2[C@H]2O[C@@H]2C[C@@H]1O
MDA-MB-435
  IC50: 1700 nM
OVCAR-3
  IC50: 1700 nM

## COc1cc(O)c2c(c1)[C@H]1O[C@@H]1C[C@H](OC(=O)/C=C\C(=O)O)[C@H](OC(=O)/C=C\C(=O)O)C(=O)/C=C\C[C@H](C)OC2=O
MDA-MB-435
  IC50: 1700 nM
OVCAR-3
  IC50: 1700 nM

## C=CCOC(=O)O[C@@H]1C(=O)/C=C\C[C@H](C)OC(=O)c2c(O)cc(OC)cc2[C@H]2O[C@@H]2C[C@@H]1O
MDA-MB-435
  IC50: 1700 nM
OVCAR-3
  IC50: 1700 nM

## COc1cc(O)c2c(c1)[C@H]1O[C@@H]1C[C@H](OC(C)=O)[C@H](O)C(=O)/C=C\C[C@H](C)OC2=O
MDA-MB-435
  IC50: 1700 nM
OVCAR-3
  IC50: 1700 nM

## C=CCOC(=O)O[C@H]1C[C@H]2O[C@@H]2c2cc(OC)cc(O)c2C(=O)O[C@@H](C)C/C=C\C(=O)[C@H]1O
MDA-MB-435
  IC50: 1700 nM
OVCAR-3
  IC50: 1700 nM

## COc1cc(O)c2c(c1)[C@H]1O[C@@H]1C[C@H](O)[C@H](OC(C)=O)C(=O)/C=C\C[C@H](C)OC2=O
MDA-MB-435
  IC50: 1700 nM
OVCAR-3
  IC50: 1700 nM

## CCOC(=O)O[C@H]1C[C@H]2O[C@@H]2c2cc(OC)cc(O)c2C(=O)O[C@@H](C)C/C=C\C(=O)[C@H]1O
MDA-MB-435
  IC50: 1700 nM
OVCAR-3
  IC50: 1700 nM
